Reference: ChEMBL document CHEMBL5360560, “Anti-Vibrio potential of natural products from marine microorganisms” (Eur J Med Chem, 2023)
In brackets after ≈: the same amount, converted by molar mass. Each block holds one compound with its values, some of them ahead of it.

What was measured:
Assay type in all cases: functional
[1] = system: Vibrio mediterranei; assay: Antimicrobial activity against Vibrio mediterranei assessed as bacterial growth inhibition
[2] = system: Vibrio scophthalmi; assay: Antimicrobial activity against Vibrio scophthalmi assessed as bacterial growth inhibition
[3] = system: Vibrio brasiliensis; assay: Antimicrobial activity against Vibrio brasiliensis assessed as bacterial growth inhibition
[4] = system: Vibrio vulnificus; assay: Antibacterial activity against Vibrio vulnificus MCCC E1758 assessed as bacterial growth inhibition measured after 24 hrs by resazurin dye based assay
[5] = system: Vibrio anguillarum; assay: Antimicrobial activity against Vibrio anguillarum QDIO-1 assessed as bacterial growth inhibition

- MIC [1]: 8 µg/mL (≈ 17 µM)
- MIC [2]: 8 µg/mL (≈ 17 µM)
- MIC [3]: 9 µg/mL (≈ 19.1 µM)
SMILES: C=C(C(C)C)[C@H](C[C@@H](C)[C@H]1CC[C@H]2[C@@H]3C(=O)C=C4C[C@@H](O)CC[C@]4(C)[C@H]3CC[C@]12C)OC(C)=O

- MIC [4]: 7.4 µg/mL (≈ 14.2 µM)
SMILES: CC[C@H](C)/C=C/C1=CC2=C(Cl)C(=O)[C@@]3(C)OC(=O)C(C(=O)[C@@H](C)[C@@H](C)O)=C3C2=CN1CCOCCO

- MIC [5]: 32 µg/mL (≈ 75.4 µM)
SMILES: CC(C)[C@@H](C)/C=C/[C@@H](C)[C@H]1CC[C@@H]2[C@]1(C)CC[C@H]1[C@]23O[C@H]3C(=O)C2=CC(=O)CC[C@@]21C
